Converted amounts (≈) assume the structure as drawn.
Columns and labels:
[1] = Thermodynamic aqueous solubility at pH 7.4; assay type: physicochemical; details: aqueous buffer, thermodynamic from solid, phosphate buffer pH 7.4, 25° C., approximate values, read-out: Concentration (thermodynamic aqueous solubility)
Procedure: The aqueous thermodynamic solubilities of the compounds of the present disclosure were measured at pH 7.4.
Determining suitability for use of a compound, e.g., as a therapeutic agent can include determining the thermodynamic solubility of the compound. An example of this determination follows: Accurately weigh about 1 mg of the powder of each compound into a glass insert vial and phosphate buffer into each vial of a capless Solubility Sample plate with the volume of 1 mL per mg. Next, add one stir stick to each vial and seal with a molded PTDE/SIL 96-Well Plate Cover. Transfer the Solubility Sample plate to an Eppendorf Thermomixer Comfort plate shaker and shake the plate at 25° C. at 1,100 rpm for 24 hours. At the end of the incubation, open the cover and remove the stir sticks using a big magnet and transfer the samples from the Solubility Sample plate into the filter plate. Using the vacuum manifold, all the samples were filtered. An aliquot of 100 μL was transferred from filtrate to a new 96-well plate by addition of 900 μL of a mixture of H2O and acetonitrile containing an internal standard (1:1) (10 fold) and 10 μL of the diluted solution was pipetted into a new 96-well plate by addition of 990 μL of a mixture of H2O and acetonitrile containing internal standard (1:1) (1,000 fold). The dilution factor may be changed according to the solubility value and the LC/MS signal response.
To prepare standards for the assay, accurately weigh about 1 mg of the powder of each compound into a glass insert vial, add DMSO into each vial of the Standard Plate with the volume of 1 mL per mg to obtain the 1 mg/mL STD sample. Aliquots of 10 μL were taken from 1 mg/mL STD sample to a new 96-well plate followed by addition of 990 μL of a mixture of H2O and acetonitrile containing internal standard (1:1) to obtain 10 μg/mL STD and then 10 μL aliquots were taken from 10 μg/mL sample to a new 96-well plate followed by addition of 990 μL of a mixture of H2O and acetonitrile containing internal standard (1:1) to obtain 0.1 μg/mL STD. The concentration of the standard sample may be changed according to the LC/MS signal response.
The samples were analyzed and quantified against the standard of known concentration using LC/MS/MS. The solubility of the test compound was calculated as follows: [Sample]=Area Ratio sample×DF sample×[STD]/Area Ratio STD DF means the dilution factor. Any value of the compounds that is not within the specified limits was rejected and the experiment was repeated.

[2] = tested on: Lgr5+ cells (cochlear stem cells); test: Lgr5+ assay: expansion of Lgr5-positive cochlear cells in 3D culture; assay type: cell-based, mouse; details: 10 days culture with EGF, bFGF, IGF1, approximate values; for Potency (Lgr5+ activity): effective concentration for Lgr5+ expansion
From the text: “Stem Cell Proliferation Assay” as used herein is an assay to determine the capacity for agent(s) to induce the creation of stem cells from a starting cell population. In an exemplary Stem Cell Proliferation Assay, the number of cells for an initial cell population is harvested from a Lgr5-GFP mouse such as a B6.129P2-Lgr5tm1(cre/ERT2)Cle/J mouse (also known as Lgr5-EGFP-IRES-creERT2 or Lgr5-GFP mouse, Jackson Lab Stock No: 008875) between the age of 3 to 7 days, by isolating the organ of Corti sensory epithelium and dissociating the epithelium into single cells. Approximately 5000 cells are entrapped in 40 μl of culture substrate (for example, Matrigel (Corning, Growth Factor Reduced)) and placed at the center of wells in a 24-well plate with 500 μl of an appropriate culture media, growth factors and agent being tested. Appropriate culture media and growth factors include Advanced DMEM/F12 with media supplements (1×N2, 1×B27, 2 mM Glutamax, 10 mM HEPES, 1 mM N-acetylcysteine, and 100 U/ml penicillin/100 μg/ml streptomycin) and growth factors (50 ng/ml EGF, 50 ng/ml bFGF, and 50 ng/ml IGF-1) as well as the agent(s) being assessed are added into each well. Cells are cultured for 10 days in a standard cell culture incubator at 37° C. and 5% CO2, with media change every 2 days. The number of Lgr5^+ cells is quantified by counting the number of cells identified as Lgr5+ in an in vitro Lgr5 activity assay (i.e., an assay mearing in vitro Lgr5 activity). The fraction of cells that are Lgr5^+ is quantified by dividing the number of cells identified as Lgr5^+ in a cell population by the total number of cells present in the cell population. The average Lgr5^+ activity of a population is quantified by measuring the average mRNA expression level of Lgr5 of the population normalized using suitable and unregulated references or housekeeping genes (e.g., Hprt). The number of hair cells in a population may be measured by staining with hair cell marker (e.g., MyosinVIIa), or using an endogenous reporter of hair cell genes (e.g., Pou4f3-GFP, Atoh1-nGFP) and analyzing using flow cytometry. The fraction of cells that are hair cells is quantified by dividing the number of cells identified as hair cells in a cell population by the total number of cells present in the cell population. Lgr5 activity can be measured by qPCR.
The compounds of the present disclosure were used in Lgr5-EGFP-IRES-Cre-ER mice (Barker et al., 2007) to analyze the effects of small molecules on cochlear stem cell expansion.
Isolation of stem cells from the inner ear: All animal studies were conducted under an approved institutional protocol according to National Institutes of Health guidelines. For experiments with neonatal mice (postnatal days 1-3), the cochleae were dissected in Hank's Balanced Salt Solution (HBSS) and the organs of Corti were separated from the stria vascularis and the modiolus. The organs of Corti were then treated with Cell Recovery Solution (Corning) for 1 hour to separate cochlear epithelium from the underlying mesenchyme. Epithelia were then collected and treated with TrypLE (Life Technologies) for 15-20 minutes at 37° C. Single cells obtained by mechanical trituration were filtered (40 μm) and suspended in Matrigel® (Corning) for 3D culture.
Cells were cultured in a 1:1 mixture of DMEM and F12, supplemented with Glutamax (GIBCO), N2, B27 (Invitrogen), EGF (50 ng/ml; Chemicon), bFGF (50 ng/ml; Chemicon), IGF1 (50 ng/ml; Chemicon) and the composition provided herein. Medium was changed every other day.
Lgr5-positive cells were quantified after 10 days (D10) in culture in multiple conditions. Cell colonies were dissociated into single cells using TrypLE (Gibco). The cells were then stained with propidium iodide (P1) and were analyzed using a flow cytometer for Lgr5-GFP expression. The number of GFP-positive cells and the percentage of GFP-positive cells were quantified. […]

For `CCn1cc(C(=O)O)c(=O)c2c(N)c(F)c(N[C@H]3C[C@@H](c4ccccc4)C3)cc21` [Compound I-61], the solubility thermodynamic at 24 h [1] was less than 0.002 µM, the “% of Lgr5+ Positive Cells” value [2] was 30% and the “Potency (Lgr5+ activity)” value [2] was 1.1 µM.
In the case of `CCn1cc(C(=O)O)c(=O)c2c(N)c(F)c(NC3CCc4ccccc43)cc21` (stereo not shown) [Compound I-10], the “% of Lgr5+ Positive Cells” value [2] was 1% and the “Potency (Lgr5+ activity)” value [2] was greater than 10 µM.
With `CC(C)n1cc(C(=O)O)c(=O)c2c(N)c(F)c(NCCN[C@@H]3C[C@H]3c3ccccc3)cc21` (relative stereo) [Compound I-88] the “% of Lgr5+ Positive Cells” value [2] was 32% and the “Potency (Lgr5+ activity)” value [2] was 1.1 µM.
With `CCn1cc(C(N)=O)c(=O)c2c(N)c(F)c(NCCN[C@H]3C[C@@H]3c3ccccc3)cc21` (relative stereo) [Compound I-83] the solubility thermodynamic at 24 h [1] was 9.6 µM (≈ 4.07 µg/mL), the “% of Lgr5+ Positive Cells” value [2] was 12% and the “Potency (Lgr5+ activity)” value [2] was 1.1 µM.
In the case of `CCn1cc(C(=O)O)c(=O)c2c(N)c(F)c(NCCc3ccccc3)cc21` [Compound I-18], the solubility thermodynamic at 24 h [1] was 0.12 µM (≈ 0.0443 µg/mL), the “% of Lgr5+ Positive Cells” value [2] was 31% and the “Potency (Lgr5+ activity)” value [2] was 1.1 µM.
`Nc1c(F)c(N[C@@H]2C[C@H]2c2ccccc2)c(F)c2c1c(=O)c(C(=O)O)cn2C1CC1` (relative stereo) [Compound I-32] gave a solubility thermodynamic at 24 h [1] of less than 0.08 µM.
Work on `CCn1cc(C(=O)O)c(=O)c2c(N)cc(N[C@@H]3C[C@H]3c3ccccc3)cc21` (relative stereo) [Compound I-59] yielded a solubility thermodynamic at 24 h [1] of less than 0.06 µM.
Work on `CCn1cc(C#N)c(=O)c2c(N)c(F)c(NCCc3ccccc3)cc21` [Compound I-67] yielded a solubility thermodynamic at 24 h [1] of 0.23 µM (≈ 0.0806 µg/mL).
With `Cn1cc(C(=O)O)c(=O)c2c(N)c(F)c(NCCN[C@@H]3C[C@H]3c3ccccc3)cc21` (relative stereo) [Compound I-86] the solubility thermodynamic at 24 h [1] was 23 µM (≈ 9.44 µg/mL), the “% of Lgr5+ Positive Cells” value [2] was 4% and the “Potency (Lgr5+ activity)” value [2] was greater than 30 µM.
In the case of `CCn1cc(C(=O)O)c(=O)c2c(N)c(F)c(NC3CC3)cc21` [Compound I-15], the solubility thermodynamic at 24 h [1] was 2.4 µM (≈ 0.733 µg/mL), the “% of Lgr5+ Positive Cells” value [2] was 30% and the “Potency (Lgr5+ activity)” value [2] was 3.3 µM.
For `CCn1cc(C(=O)O)c(=O)c2c(N)c(F)c(NCCN[C@@H]3C[C@]34CCc3ccccc34)cc21` (relative stereo) [Compound I-81], the solubility thermodynamic at 24 h [1] was 1.2 µM (≈ 0.541 µg/mL), the “% of Lgr5+ Positive Cells” value [2] was 65% and the “Potency (Lgr5+ activity)” value [2] was 10 µM.
For `CCn1cc(C(=O)O)c(=O)c2c(N)c(F)c(NC3CN(c4ccccc4)C3)cc21` [Compound I-69], the solubility thermodynamic at 24 h [1] was less than 0.03 µM, the “% of Lgr5+ Positive Cells” value [2] was 25% and the “Potency (Lgr5+ activity)” value [2] was 1.1 µM.
With `CCn1cc(C#N)c(=O)c2c(N)c(F)c(NCCN[C@@H]3C[C@H]3c3ccccc3)cc21` (relative stereo) [Compound I-84] the solubility thermodynamic at 24 h [1] was 49 µM (≈ 19.9 µg/mL), the “% of Lgr5+ Positive Cells” value [2] was 9% and the “Potency (Lgr5+ activity)” value [2] was 1.1 µM.
Work on `CCn1cc(-c2nnn[nH]2)c(=O)c2c(N)c(F)c(NCCc3ccccc3)cc21` [Compound I-68] yielded a solubility thermodynamic at 24 h [1] of 0.03 µM (≈ 0.0118 µg/mL).
For `CCn1cc(C#N)c(=O)c2c(N)c(F)c(N[C@@H]3C[C@H]3c3ccccc3)cc21` (relative stereo) [Compound I-38], the solubility thermodynamic at 24 h [1] was less than 0.01 µM, the “% of Lgr5+ Positive Cells” value [2] was 7.5% and the “Potency (Lgr5+ activity)” value [2] was 0.123 µM.
In the case of `CCn1cc(C(=O)O)c(=O)c2c(N)c(F)c(NC3Cc4ccccc4C3)cc21` [Compound I-11], the solubility thermodynamic at 24 h [1] was less than 0.08 µM, the “% of Lgr5+ Positive Cells” value [2] was 17% and the “Potency (Lgr5+ activity)” value [2] was 3.3 µM.
For `CCn1cc(C(=O)O)c(=O)c2cc(F)c(NC3CCCCC3)cc21` [Compound I-1], the “% of Lgr5+ Positive Cells” value [2] was less than 5% and the “Potency (Lgr5+ activity)” value [2] was greater than 10 µM.
With `CCn1cc(C(=O)O)c(=O)c2c(N)c(F)c(N[C@@H]3CC[C@H]3c3ccccc3)cc21` (relative stereo) [Compound I-13] the solubility thermodynamic at 24 h [1] was less than 1.2 µM.
`CCn1cc(C(=O)O)c(=O)c2c(N)cc(NCCc3ccccc3)c(F)c21` [Compound I-65] showed a solubility thermodynamic at 24 h [1] of 0.11 µM (≈ 0.0406 µg/mL).
With `CCn1cc(C(=O)O)c(=O)c2c(N)c(F)c(NCc3ccccc3)cc21` [Compound I-17] the solubility thermodynamic at 24 h [1] was 0.11 µM (≈ 0.0391 µg/mL), the “% of Lgr5+ Positive Cells” value [2] was 22% and the “Potency (Lgr5+ activity)” value [2] was 3.3 µM.
In the case of `CCn1cc(C(=O)O)c(=O)c2c(N)c(F)c(N[C@H]3C[C@@H]3c3ccccc3)cc21` [Compound I-22], the “% of Lgr5+ Positive Cells” value [2] was 16% and the “Potency (Lgr5+ activity)” value [2] was 1.1 µM.
For `CCn1cc(C(=O)O)c(=O)c2c(N)c(F)c(N[C@@H]3C[C@H]3c3ccccc3)cc21` [Compound I-21], the “% of Lgr5+ Positive Cells” value [2] was 21% and the “Potency (Lgr5+ activity)” value [2] was 3.3 µM.
For `CCn1cc(C(=O)O)c(=O)c2c(N)c(F)c(N3CCC(N[C@@H]4C[C@H]4c4ccccc4)CC3)cc21` (relative stereo) [Compound I-26], the “% of Lgr5+ Positive Cells” value [2] was less than 5% and the “Potency (Lgr5+ activity)” value [2] was greater than 10 µM.
In the case of `CCn1cc(C(=O)O)c(=O)c2c(N)c(F)c(NCCN[C@@H]3C[C@@]34CCc3ccccc34)cc21` (relative stereo) [Compound I-82], the “% of Lgr5+ Positive Cells” value [2] was 48% and the “Potency (Lgr5+ activity)” value [2] was 10 µM.
In the case of `CC(C)n1cc(C(=O)O)c(=O)c2c(N)c(F)c(N[C@]3(C)C[C@@H](N[C@@H]4C[C@H]4c4ccccc4)C3)cc21` (relative stereo) [Compound I-93], the “% of Lgr5+ Positive Cells” value [2] was 8% and the “Potency (Lgr5+ activity)” value [2] was greater than 30 µM.
With `Nc1c(F)c(NCCN[C@@H]2C[C@H]2c2ccccc2)cc2c1c(=O)c(C(=O)O)cn2C1CC1` (relative stereo) [Compound I-89] the “% of Lgr5+ Positive Cells” value [2] was 35% and the “Potency (Lgr5+ activity)” value [2] was 3.3 µM.
Compound `CCn1cc(C(N)=O)c(=O)c2c(N)c(F)c(NCCc3ccccc3)cc21` [Compound I-66] has a solubility thermodynamic at 24 h [1] of 0.06 µM (≈ 0.0221 µg/mL).
For `CCC(CC)n1cc(C(=O)O)c(=O)c2c(C)c(F)c(NC3CCCCC3)cc21` [Compound I-3], the “% of Lgr5+ Positive Cells” value [2] was less than 5% and the “Potency (Lgr5+ activity)” value [2] was greater than 10 µM.
For `CCn1cc(C(=O)O)c(=O)c2c(N)c(F)c(Nc3ccc([C@@H]4C[C@H]4N)cc3)cc21` (relative stereo) [Compound I-62], the solubility thermodynamic at 24 h [1] was 54 µM (≈ 21.4 µg/mL).

From patent US20230058189A1, “QUINOLIN-4-ONE AND 4(1H)-CINNOLINONE COMPOUNDS AND METHODS OF USING SAME” (Frequency Therapeutics, Inc., priority 2019, published 2023)
